Drawing on patent US20230219986A1, “NOVEL AMINOPYRIMIDINE EGFR INHIBITOR” (QILU PHARMACEUTICAL CO., LTD., priority 2020, published 2023), this text covers IC50 and GI50 for 32 compounds.

The target in assay [1] is T1, L858R/T790M/C797S triple mutant EGFR (Homo sapiens, UniProt P00533, C797S/L858R/T790M).
T1 construct: purchased Signalchem
Put plainly: Enzymology experiment in vitro (HTRF/FRET kinase activity), L858R/T790M/C797S triple mutant EGFR. Particulars: HTRF KinEASE-TK, read-out: EGFR (L858R/T790M/C797S) IC50. The format is biochemical. The protocol: 1. Experimental Materials
HTRF KinEASE-TK kit detection reagent, purchased from Cisbio
1) 10 nL of gradient diluted compound was transferred into a 384-well experimental plate using Echo 550 (Labcyte).
2) 5 μL of 2×EGFR enzyme solution was added to the 384-well experimental plate and incubated at room temperature for 10 minutes.
3) 5 μL of 2× substrate solution containing polypeptide and ATP was added to the 384-well experimental plate and incubated at room temperature for 40 minutes.
4) 10 μL of detection solution containing EDTA, XL665-labeled streptavidin and Eu^3+-labeled antibody was added thereto and incubated at room temperature for 1 hour.
In general terms: TR-FRET usually uses a lanthanide donor and a delayed reading to cut background.

Assay [2] concerns EGFR wild-type cell line A431. As to the kind of experiment: Cell proliferation inhibition experiment (CellTiter-Glo), A431. The format is cell-based. Particulars: A431 cells, Cell Titer-Glo, read-out: A431 EGFR WT IC50. The protocol: A431 cells, purchased from ATCC.
1) A431 cells were inoculated in a 384-well culture plate at a density of 800 cells per well, 30 μL per well, placed in a cell incubator, and cultured for 24 hours (37° C., 5% CO2).
(§1) 3) 30 nL of gradient diluted compound was transferred into the 384-well experimental plate using Echo 550 (Labcyte) at a DMSO final concentration of 0.1%, and the culture plate was incubated in a cell incubator for 72 hours (37° C., 5% CO2).
(§2) 4) 30 μL of Cell Titer-Glo reagent was added to each well and left for 30 minutes at room temperature and protected from light.
(§3) 5) Envision microplate reader (PerkinElmer) detected chemiluminescence signals.
(§4) 6) GraphPad Prism 8 software was used for data analysis to obtain the IC50 of the compounds of the present disclosure and the positive control.
(In general: Cellular ATP, detected with luciferase, serves as a proxy for viable cell number.)

In assay [3] the target is Ba/F3 De119/T790M/C797S EGFR triple mutant cell line (Homo sapiens, UniProt P00533, T790M/C797S, cells depend on it, form not given). Put plainly: Cell proliferation inhibition experiment (CellTiter-Glo), Ba/F3 De119/T790M/C797S. The class given is cell-based. Particulars: Ba/F3 Del19/T790M/C797S EGFR triple mutant cells, 72 hours, Cell Titer-Glo; read-out: Ba/F3 (Del19/T790M/C797S) IC50. The method, then:
as §1, §2, §3, §4

The target in assay [4] is Ba/F3 L858R/T790M/C797S EGFR triple mutant cell line (Homo sapiens, UniProt P00533, T790M/C797S/L858R, cells depend on it). Put plainly: Cell proliferation inhibition experiment (CellTiter-Glo), Ba/F3 L858R/T790M/C797S. The format is cell-based. As to conditions: 72 hours, Cell Titer-Glo, read-out: Ba/F3 (L858R/T790M/C797S) IC50. The method, then: as §1, §2, §3, §4
Ba/F3 L858R/T790M/C797S EGFR triple mutant cell line, sequence (P00533 whole entry T790M/C797S/L858R): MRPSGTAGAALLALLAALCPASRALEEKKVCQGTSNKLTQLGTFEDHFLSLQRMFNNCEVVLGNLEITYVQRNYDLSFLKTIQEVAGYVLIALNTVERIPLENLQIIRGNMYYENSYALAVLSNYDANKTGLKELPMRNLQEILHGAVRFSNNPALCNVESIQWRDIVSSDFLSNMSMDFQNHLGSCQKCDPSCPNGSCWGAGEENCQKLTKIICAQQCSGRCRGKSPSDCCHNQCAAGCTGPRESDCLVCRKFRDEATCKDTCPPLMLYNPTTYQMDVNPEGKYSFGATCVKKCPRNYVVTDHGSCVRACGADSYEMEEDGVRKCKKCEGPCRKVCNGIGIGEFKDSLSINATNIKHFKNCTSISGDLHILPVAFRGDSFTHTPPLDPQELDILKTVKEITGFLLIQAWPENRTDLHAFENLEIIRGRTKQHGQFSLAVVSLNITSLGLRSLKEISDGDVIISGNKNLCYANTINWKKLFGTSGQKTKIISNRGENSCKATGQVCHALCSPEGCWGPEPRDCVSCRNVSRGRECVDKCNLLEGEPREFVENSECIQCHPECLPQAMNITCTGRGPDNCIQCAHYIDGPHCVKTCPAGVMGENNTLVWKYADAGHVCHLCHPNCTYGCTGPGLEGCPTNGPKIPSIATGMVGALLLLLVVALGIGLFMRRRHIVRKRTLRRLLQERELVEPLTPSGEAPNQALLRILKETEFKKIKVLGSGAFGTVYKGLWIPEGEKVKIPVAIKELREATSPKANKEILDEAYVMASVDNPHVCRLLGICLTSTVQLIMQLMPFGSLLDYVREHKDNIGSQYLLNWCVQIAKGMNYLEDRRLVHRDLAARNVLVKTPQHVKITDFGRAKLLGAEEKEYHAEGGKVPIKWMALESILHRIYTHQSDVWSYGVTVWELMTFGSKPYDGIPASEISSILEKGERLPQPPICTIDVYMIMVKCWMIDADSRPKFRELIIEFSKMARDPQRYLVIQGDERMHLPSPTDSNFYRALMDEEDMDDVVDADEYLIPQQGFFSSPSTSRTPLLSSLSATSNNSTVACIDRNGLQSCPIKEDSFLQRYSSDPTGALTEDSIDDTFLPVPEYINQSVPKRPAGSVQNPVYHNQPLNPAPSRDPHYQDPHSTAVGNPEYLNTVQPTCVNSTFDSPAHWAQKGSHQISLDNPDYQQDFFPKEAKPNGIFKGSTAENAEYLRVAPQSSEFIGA

The structures appear in SMILES notation. Where two headings read alike, the source gives them in different places.

Ba/F3 De119/T790M/C797S EGFR triple mutant cell line, sequence (P00533 with tags, fused parts or gaps DEL746-750/T790M/C797S, form open): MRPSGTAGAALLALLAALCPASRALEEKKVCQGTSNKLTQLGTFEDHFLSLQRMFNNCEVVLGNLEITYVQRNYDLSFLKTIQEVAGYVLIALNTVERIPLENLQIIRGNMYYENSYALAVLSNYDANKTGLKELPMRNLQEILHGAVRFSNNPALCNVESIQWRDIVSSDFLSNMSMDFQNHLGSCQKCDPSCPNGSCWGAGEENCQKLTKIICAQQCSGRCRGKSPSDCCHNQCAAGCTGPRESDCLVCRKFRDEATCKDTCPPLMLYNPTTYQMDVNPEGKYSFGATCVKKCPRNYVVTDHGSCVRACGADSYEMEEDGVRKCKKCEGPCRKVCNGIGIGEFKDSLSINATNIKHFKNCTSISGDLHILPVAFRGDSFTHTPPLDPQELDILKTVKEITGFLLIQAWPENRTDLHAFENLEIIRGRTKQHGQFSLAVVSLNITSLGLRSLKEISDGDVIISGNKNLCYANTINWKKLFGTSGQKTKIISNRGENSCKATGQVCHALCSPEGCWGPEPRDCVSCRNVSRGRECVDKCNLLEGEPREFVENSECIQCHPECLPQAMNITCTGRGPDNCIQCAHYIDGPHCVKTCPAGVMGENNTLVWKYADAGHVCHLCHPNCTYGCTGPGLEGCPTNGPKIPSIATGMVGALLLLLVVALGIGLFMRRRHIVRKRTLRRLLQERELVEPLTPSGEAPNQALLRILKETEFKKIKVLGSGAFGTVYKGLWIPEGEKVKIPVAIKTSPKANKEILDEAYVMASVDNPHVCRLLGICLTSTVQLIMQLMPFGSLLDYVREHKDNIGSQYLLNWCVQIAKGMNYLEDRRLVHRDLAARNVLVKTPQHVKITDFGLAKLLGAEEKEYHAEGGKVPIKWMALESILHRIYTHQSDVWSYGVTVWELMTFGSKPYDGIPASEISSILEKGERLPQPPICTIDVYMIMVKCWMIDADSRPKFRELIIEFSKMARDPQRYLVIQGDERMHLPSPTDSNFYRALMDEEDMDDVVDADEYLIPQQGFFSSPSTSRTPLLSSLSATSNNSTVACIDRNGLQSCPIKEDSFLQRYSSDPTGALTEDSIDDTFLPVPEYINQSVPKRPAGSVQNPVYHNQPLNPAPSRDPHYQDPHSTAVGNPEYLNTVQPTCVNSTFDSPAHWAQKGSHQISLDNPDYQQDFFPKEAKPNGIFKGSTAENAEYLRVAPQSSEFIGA
T1 sequence (P00533 25-1210 T790M/C797S/L858R): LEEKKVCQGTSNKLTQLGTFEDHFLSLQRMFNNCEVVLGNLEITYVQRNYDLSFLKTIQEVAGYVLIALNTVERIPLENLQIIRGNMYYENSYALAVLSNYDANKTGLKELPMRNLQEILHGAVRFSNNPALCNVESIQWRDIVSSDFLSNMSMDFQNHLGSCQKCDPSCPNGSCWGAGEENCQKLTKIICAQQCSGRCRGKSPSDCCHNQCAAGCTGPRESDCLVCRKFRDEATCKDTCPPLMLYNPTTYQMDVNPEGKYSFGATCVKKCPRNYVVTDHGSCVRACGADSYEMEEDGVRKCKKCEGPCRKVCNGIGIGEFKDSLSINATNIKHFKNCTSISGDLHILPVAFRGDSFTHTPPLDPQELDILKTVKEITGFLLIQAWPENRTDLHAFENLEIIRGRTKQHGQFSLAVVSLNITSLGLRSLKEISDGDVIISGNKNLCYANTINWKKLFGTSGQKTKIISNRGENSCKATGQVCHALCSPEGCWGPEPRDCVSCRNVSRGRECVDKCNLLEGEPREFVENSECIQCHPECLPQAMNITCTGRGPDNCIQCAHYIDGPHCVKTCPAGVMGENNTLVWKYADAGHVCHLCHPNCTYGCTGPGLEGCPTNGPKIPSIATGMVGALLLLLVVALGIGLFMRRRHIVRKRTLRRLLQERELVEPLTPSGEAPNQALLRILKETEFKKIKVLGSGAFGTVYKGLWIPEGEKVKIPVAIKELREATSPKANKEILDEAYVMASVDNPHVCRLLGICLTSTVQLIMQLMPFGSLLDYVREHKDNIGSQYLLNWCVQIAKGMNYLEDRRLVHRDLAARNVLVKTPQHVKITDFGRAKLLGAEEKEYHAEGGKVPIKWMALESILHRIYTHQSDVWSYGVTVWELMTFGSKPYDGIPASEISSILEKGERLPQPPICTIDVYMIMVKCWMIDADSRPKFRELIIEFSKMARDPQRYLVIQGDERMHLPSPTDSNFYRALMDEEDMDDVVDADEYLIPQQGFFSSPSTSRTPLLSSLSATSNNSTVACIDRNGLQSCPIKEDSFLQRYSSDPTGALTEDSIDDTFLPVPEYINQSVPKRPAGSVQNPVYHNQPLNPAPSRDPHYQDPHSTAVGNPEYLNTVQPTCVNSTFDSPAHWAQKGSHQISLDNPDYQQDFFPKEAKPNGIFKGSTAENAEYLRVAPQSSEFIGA

With `COc1cc(N2CCC(N3CCOCC3)CC2)c(-c2cnn(C)c2)cc1Nc1ncc(Br)c(Nc2ccc3nccnc3c2P(C)(C)=O)n1` [compound 210], the IC50 in assay [1] was determined as 0.00011 µM; in assay [2] (72 hours), 0.275 µM. For the same compound, the GI50 in assay [3] stood at 0.00442 µM; in assay [4], 0.00723 µM.
Regarding `COc1cc(N2CCOCC2)c(-n2cccn2)cc1Nc1ncc(Br)c(Nc2ccc3nccnc3c2P(C)(C)=O)n1` [compound 61], the IC50 in assay [2] (Homo sapiens, A-431, 72 h) stood at 6.58 µM. The GI50 in assay [3] stood at 0.312 µM; in assay [4], 0.794 µM.
In the case of `COc1cc(N2CCOCC2)c(-c2cncn2C)cc1Nc1ncc(Br)c(Nc2ccc3nccnc3c2P(C)(C)=O)n1` [compound 91], in assay [2] (Homo sapiens, A-431, 72 h), the IC50 was determined as 3.55 µM. Besides, the GI50 in assay [3] is 0.278 µM; in assay [4], 0.43 µM.
On the same counts, the results for `COc1cc(N2CCOCC2)c(-n2cc(C)cn2)cc1Nc1ncc(Br)c(Nc2ccc3nccnc3c2P(C)(C)=O)n1` [compound 73] are 3.25 µM, 0.326 µM and 0.536 µM.
As to `COc1cc(N2CCOCC2)c(-c2cnn(C)c2)cc1Nc1ncc(Br)c(Nc2ccccc2S(=O)(=O)C(C)C)n1` [compound 54], the IC50 in assay [2] (Homo sapiens, A-431, 72 h) came out at 0.638 µM. Besides, the GI50 in assay [3] came to 0.103 µM.
As to `COc1cc(N2CC3(COC3)C2)c(-c2cnn(C)c2)cc1Nc1ncc(Br)c(Nc2ccc3nccnc3c2P(C)(C)=O)n1` [compound 109], the IC50 in assay [2] (Homo sapiens, A-431, 72 h) turned out to be 0.547 µM. For the same compound, the GI50 in assay [3] amounted to 0.0463 µM; in assay [4] it was 0.0628 µM.
The like results for `COc1cc(N2CCCCC2)c(-c2cnn(C)c2)cc1Nc1ncc(Br)c(Nc2ccc3nccnc3c2P(C)(C)=O)n1` [compound 66] were, in that order, 0.575 µM, 0.00304 µM and 0.0108 µM.
On the same counts, the results for `COc1c(Nc2ncc(Br)c(Nc3ccc4nccnc4c3P(C)(C)=O)n2)cc(-c2cnn(C)c2)c(N2CCOCC2)c1C` [Compound 68, (6-((5-bromo-2-((2-methoxy-3-methyl-5-(1-methyl-1H-pyrazol-4-yl)-4-morpholinylphenyl)amino)pyrimidin-4-yl)amino)quinoxalin-5-yl)dimethylphosphine oxide] are 1.39 µM, 0.114 µM and 0.372 µM.
As for `CN1CCC2(CC1)CCN(c1ccc(Nc3ncc(Br)c(Nc4ccc5nccnc5c4P(C)(C)=O)n3)cc1-c1cnn(C)c1)CC2` [compound 76], the IC50 in assay [2] (Homo sapiens, A-431, 72 h) turned out to be 0.0207 µM. Besides, the GI50 in assay [3] was determined as 0.0054 µM; in assay [4], 0.00996 µM.
On to `COc1cc(P(C)(C)=O)c(-c2cnn(C)c2)cc1Nc1ncc(Br)c(Nc2ccc3nccnc3c2P(C)(C)=O)n1` [compound 55], for which the IC50 in assay [2] (Homo sapiens, A-431, 72 h) was no less than 5 µM. The GI50 in assay [3] stood at 1.23 µM.
Take `COc1cc(N2CCN(CCO)CC2)c(-c2cnn(C)c2)cc1Nc1ncc(Br)c(Nc2ccc3nccnc3c2P(C)(C)=O)n1` [compound 99]: the IC50 in assay [2] (Homo sapiens, A-431, 72 h) worked out at 0.209 µM. Moreover, the GI50 turned out to be 0.0406 µM in assay [3] and 0.104 µM in assay [4].
In the case of `COc1cc(N2CCOCC2)c(C#N)cc1Nc1ncc(Br)c(Nc2ccc3nccnc3c2P(C)(C)=O)n1` [compound 59], in assay [2] (Homo sapiens, A-431, 72 h), the IC50 amounted to 0.345 µM. Moreover, the GI50 in assay [3] is 0.0262 µM.
`COc1c(Nc2ncc(Br)c(Nc3ccc4nccnc4c3P(C)(C)=O)n2)cc(-c2cnn(C)c2)c(N2CCC(N(C)C)CC2)c1F` [compound 95]: the IC50 in assay [2] (Homo sapiens, A-431, 72 h) is 0.0967 µM. In addition, the GI50 in assay [3] amounted to 0.0157 µM; in assay [4], 0.0409 µM.
On the same counts, the results for `Cn1cc(-c2cc(Nc3ncc(Br)c(Nc4ccc5nccnc5c4P(C)(C)=O)n3)cc(F)c2N2CCOCC2)cn1` [compound 46] are 0.0672 µM, 0.00671 µM and 0.0117 µM.
On to `COc1nc(N2CCC3(CC2)COC3)c(-c2cnn(C)c2)cc1Nc1ncc(Br)c(Nc2ccc3nccnc3c2P(C)(C)=O)n1` [compound 67], for which the IC50 in assay [2] (Homo sapiens, A-431, 72 hours) was found to be 0.622 µM. Further, the GI50 in assay [3] is 0.0423 µM; in assay [4], 0.0592 µM.
Consider `COc1cc(N2CCC(C)(N)CC2)c(-c2cnn(C)c2)cc1Nc1ncc(Br)c(Nc2ccc3nccnc3c2P(C)(C)=O)n1` [compound 113], for which, in assay [2] (Homo sapiens, A-431, 72 h), the IC50 was found to be 0.189 µM. The GI50 in assay [3] was 0.0745 µM; in assay [4], 0.176 µM.
With `COc1nc(N2CCN(C)CC2)c(-c2cnn(C)c2)cc1Nc1ncc(Br)c(Nc2ccc3nccnc3c2P(C)(C)=O)n1` [compound 65], the IC50 in assay [2] (Homo sapiens, A-431, 72 h) amounted to 0.0724 µM. The GI50 in assay [3] stood at 0.00668 µM; in assay [4] it was 0.0173 µM.
Regarding `CNC(=O)c1ccccc1Nc1nc(Nc2cc(-c3cnn(C)c3)c(N3CCOCC3)cc2OC)ncc1Br` [compound 52], the IC50 in assay [2] (Homo sapiens, A-431, 72 h) is 0.158 µM. Moreover, the GI50 in assay [3] amounted to 0.0267 µM.
`Cc1cc(Nc2ncc(Br)c(Nc3ccc4nccnc4c3P(C)(C)=O)n2)cc(-c2cnn(C)c2)c1N1CCOCC1` [compound 100, (6-((5-bromo-2-((3-methyl-5-(1-methyl-1H-pyrazol-4-yl)-4-morpholinylphenyl)amino)pyrimidin-4-yl)amino)quinoxalin-5-yl)dimethylphosphine oxide]: in assay [2] (Homo sapiens, A-431, 72 h), the IC50 is 0.0291 µM. For the same compound, the figures for the GI50 in assay [3] and in assay [4] were 0.00287 µM and 0.0062 µM, respectively.
In the case of `COc1nc(N(C)CCN(C)C)c(-c2cnn(C)c2)cc1Nc1ncc(Br)c(Nc2ccc3nccnc3c2P(C)(C)=O)n1` [compound 45], the IC50 in assay [2] (Homo sapiens, A-431, 72 h) was found to be 0.102 µM. Also, the GI50 in assay [3] is 0.00765 µM.
As to `COc1cc(N2CCOCC2)c(-c2cnn(C)c2)c(F)c1Nc1ncc(Br)c(Nc2ccc3nccnc3c2P(C)(C)=O)n1` [compound 62], in assay [2] (Homo sapiens, A-431, 72 h), the IC50 was 3.38 µM. The figures for the GI50 in assay [3] and in assay [4] were 0.0736 µM and 0.195 µM, respectively.
As to `COc1cc(N2CCNCC2)c(-c2cnn(C)c2)cc1Nc1ncc(Br)c(Nc2ccc3nccnc3c2P(C)(C)=O)n1` [compound 117], the IC50 in assay [2] (Homo sapiens, A-431, 72 h) stood at 0.157 µM. The GI50 in assay [3] was found to be 0.041 µM; in assay [4] it was 0.12 µM.
The like results for `CN1CCN(c2ncc(Nc3ncc(Br)c(Nc4ccc5nccnc5c4P(C)(C)=O)n3)cc2-c2cnn(C)c2)CC1` [Compound 70, (6-((5-bromo-2-((5-(1-methyl-1H-pyrazol-4-yl)-6-(4-methylpiperazin-1-yl)pyridin-3-yl)amino)pyrimidin-4-yl)amino)quinoxalin-5-yl)dimethylphosphine oxide] were, in that order, 0.157 µM, 0.117 µM and 0.348 µM.
`COc1cc(N2CCN(C)C(C)(C)C2)c(-c2cnn(C)c2)cc1Nc1ncc(Br)c(Nc2ccc3nccnc3c2P(C)(C)=O)n1` [compound 108]: the IC50 in assay [2] (Homo sapiens, A-431, 72 h) was 0.0927 µM. In addition, the GI50 worked out at 0.0125 µM in assay [3] and 0.0245 µM in assay [4].
On the same counts, the results for `COc1cc(N2CCC(N(C)C)CC2)c(-c2cnn(C)c2)cc1Nc1ncc(Br)c(Nc2ccc3nccnc3c2P(C)(C)=O)n1` [compound 96] are 0.0442 µM, 0.00352 µM and 0.00939 µM.
On to `COc1cc(N2CCC(N3CCN(C)CC3)CC2)ccc1Nc1ncc(Cl)c(Nc2ccccc2P(C)(C)=O)n1` [Brigatinib, reference compound], for which the IC50 in assay [2] (Homo sapiens, A-431, 72 hours) came out at 0.771 µM. In addition, the GI50 in assay [3] turned out to be 0.103 µM; in assay [4], 0.32 µM.
`COc1cc(N2CCOCC2)c(-c2cncnc2)cc1Nc1ncc(C)c(Nc2ccc3nccnc3c2P(C)(C)=O)n1` [compound 60]: in assay [2] (Homo sapiens, A-431, 72 h), the IC50 worked out at 0.658 µM. Also, the GI50 in assay [3] stood at 0.0893 µM.
Consider `COc1cc(C2=CCN(C)CC2)c(-c2cnn(C)c2)cc1Nc1ncc(Br)c(Nc2ccc3nccnc3c2P(C)(C)=O)n1` [compound 177], for which the IC50 in assay [2] (Homo sapiens, A-431, 72 h) came out at 0.0593 µM. Also, the results for the GI50 in assay [3] and in assay [4] were 0.0256 µM and 0.035 µM, respectively.
The like results for `COc1nc(N2CCOCC2)c(-c2cnn(C)c2)cc1Nc1ncc(C)c(Nc2ccc3nccnc3c2P(C)(C)=O)n1` [compound 63] were, in that order, 0.331 µM, 0.0143 µM and 0.0249 µM.
For the compound `Cn1cc(-c2cc(Nc3ncc(Br)c(Nc4ccc5nccnc5c4P(C)(C)=O)n3)ccc2N2CCOCC2)cn1` [compound 48], in assay [2] (Homo sapiens, A-431, 72 h), the IC50 came to 0.0511 µM. Also, the GI50 came to 0.00302 µM in assay [3] and 0.00603 µM in assay [4].
The like results for `COc1cc(N2CCOCC2)c(-c2ccnn2C)cc1Nc1ncc(Br)c(Nc2ccc3nccnc3c2P(C)(C)=O)n1` [compound 90] were, in that order, 4.39 µM, 0.251 µM and 0.446 µM.
As for `COc1ccc(-n2ccnc2)cc1Nc1ncc(Br)c(Nc2ccc3nccnc3c2P(C)(C)=O)n1` [compound 50], in assay [2] (Homo sapiens, A-431, 72 h), the IC50 stood at 0.508 µM. Also, the GI50 in assay [3] came to 0.0341 µM.
